From article PMC10549826 (Antiviral research, 2023) come the findings set out here.

In this assay the target is A/Victoria/361/2011 NA, wild-type sequence Q136, T148, R150, T439 (recombinant PR8-based A(H3N2) virus) (Influenza A virus, UniProt G9LQ08). The assay is classed as biochemical.

As a reminder, the IC50 is the concentration at which inhibition is half-maximal. Take `CCC(CC)[C@H](NC(C)=O)[C@@H]1[C@H](O)[C@@H](C(=O)O)C[C@H]1N=C(N)N` [Peramivir, peramivir]: the 50% inhibitory concentration (IC50) was 0.07 ± 0.01 nM.
